Laboratory results: patent US7628987B2, “Vectors derived from antibodies for transferring substances into cells” (Institut Pasteur, priority 1997, dated 2009)

Test system: CCL39 cells
Test: Polyfection in the presence of glycerol, CCL39 cells
Type: cell-based, hamster
Settings: glycerol 0.23 M, charge ratio 2.2, 5 h30
Protocol: Further, by way of comparison, transfection was carried out in the presence of polyethylene […] (PEI), 25 kDa (Aldrich, St Louis, Mo.) in a charge ratio of 2.2 in the presence of glycerol and 5 in the absence of glycerol.

## OCC(O)CO [glycerol]
  increase in polyfection (luciferase activity) induced by glycerol: 38 factor
